# Source: patent publication US20260174878A1, “IRAK4 DEGRADATION AGENT AND USE THEREOF” (LEADINGTAC PHARMACEUTICAL (SHAOXING) CO., LTD., priority 2022, published 2026)
# What was measured:
# IRAK4 kinase = molecular target: T1, IRAK4 kinase (Homo sapiens, UniProt Q9NWZ3); experiment: IRAK4 kinase activity test (KinEASE-STK S1 HTRF kit); type: biochemical; details: IRAK4 kinase 2.5 nM, 7 μM adenosine triphosphate, 37° C. 120 min
# T1 construct: purchased Carna
# T1 sequence (Q9NWZ3 1-460): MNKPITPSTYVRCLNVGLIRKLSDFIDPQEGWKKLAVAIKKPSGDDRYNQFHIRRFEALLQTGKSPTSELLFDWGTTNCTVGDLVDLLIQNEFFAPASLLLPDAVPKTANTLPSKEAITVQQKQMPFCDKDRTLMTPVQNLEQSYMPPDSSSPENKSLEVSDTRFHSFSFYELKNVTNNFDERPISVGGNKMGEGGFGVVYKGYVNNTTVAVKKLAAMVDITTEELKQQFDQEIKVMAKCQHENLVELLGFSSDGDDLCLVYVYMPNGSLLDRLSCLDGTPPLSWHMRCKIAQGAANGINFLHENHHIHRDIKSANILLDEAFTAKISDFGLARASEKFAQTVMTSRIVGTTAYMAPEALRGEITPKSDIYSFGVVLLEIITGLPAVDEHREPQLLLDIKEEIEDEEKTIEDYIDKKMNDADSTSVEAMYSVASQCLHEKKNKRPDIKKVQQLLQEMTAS
# Description: Then 2.5 nM IRAK4 kinase (Carna), 1 μM biotinylated polypeptide substrate (Cisbio), and 7 μM adenosine triphosphate (Sigma-Aldrich) were sequentially added, and the mixtures were incubated at 37° C. for 120 min. Subsequently, an anti-phosphoserine/threonine antibody (Cisbio) conjugated with a europium element compound and streptavidin conjugated with a modified XL665 (Cisbio) were added to the reaction system to stop the reaction. After 1 h of incubation at room temperature, the fluorescence intensity of each well was measured at the excitation wavelength of 337 nm and the emission wavelengths of 620 nm and 665 nm with a microplate reader EnVision (PerkinElmer) in the HTRF mode, and Ratio values were calculated using the formula: Ratio=(665 nm/620 nm)×10^4. The inhibition rates of the compounds at each concentration were calculated by comparison with the fluorescence intensity ratio of the control group. Then non-linear curve fittings for logarithmic concentration-inhibition rate were performed using GraphPad Prism 7, and the IC50 values of the compounds were obtained.
# [1] = molecular target: T2, IRAK4 protein in normal human PBMCs (Homo sapiens, UniProt Q9NWZ3); experiment: Degradation of IRAK4 protein in normal human PBMCs (AlphaLISA); type: cell-based; details: 24 h incubation
# T2 construct: host or cells: normal human PBMCs
# T2 sequence (Q9NWZ3 1-460): T1 sequence (Q9NWZ3 1-460)
# Description: The cryopreserved normal human PBMCs (Milestone, PB010C) were thawed and resuspended in RPMI 1640 medium (Gibco, A1049101) supplemented with 10% fetal bovine serum (Gibco, 10099141), 100 U/mL penicillin, and 100 µg/mL streptomycin (Gibco, 15140122). After 0.95 mL of cells were plated in each well of a 24-well cell culture plate, 50 µL of diluted compound solution was added to corresponding wells with cells, such that the final concentration of the compound fell within the range of 0.01-3000 nM. The final concentration of DMSO was 0.25%. After the compound-treated cell plate was incubated in an incubator at 37° C. with 5% CO2 for 24 h, the cells were collected into 1.5 mL centrifuge tubes and centrifuged at 1000 rpm at 4° C. for 5 min. The cell pellets were washed twice with 1×DPBS. The resuspended cells were lysed with 100 μL of lysis buffer, left to stand on ice for 30 min, and then centrifuged at 14000 g at 4° C. for 10 min. The samples of the cell lysate supernatant after centrifugation were cryopreserved at −80° C. before testing. The cell lysis buffer was a Western and IP cell lysis buffer (Beyotime, P0013) supplemented with 1 mM phenylmethylsulfonyl fluoride and a protease inhibitor cocktail (Beyotime, P1008).
# The total protein concentrations of the cell lysate samples were determined using a BCA protein quantification kit (Tiangen, PA115-02).
# The prepared PBMC lysate samples were assayed for IRAK4 concentrations using a human IRAK4 AlphaLISA assay kit (PerkinElmer, AL3117C) to determine the degradation effects of the compounds on IRAK4. The method is as follows:
# 5 μL of each of IRAK4 standard solutions with different concentrations and test samples of cell lysate supernatant were added to a white 384-well plate (PerkinElmer, 6007299), and then 10 μL of 5× anti-IRAK4 […] beads was added to each well (final concentration of 10 μg/mL). The plate was incubated at room temperature for 30 min. Then 10 μL of 5× biotin-labeled anti-IRAK4 antibody was added to each well (final concentration of 1 nM), and the plate was incubated at room temperature for another 60 min. Finally, 25 μL of 2× streptavidin-labeled donor beads was added to each well (final concentration of 40 μg/mL), and the plate was incubated at room temperature for another 30 min. After the incubation was completed, AlphaLISA signal values were measured on a microplate reader EnVision (PerkinElmer, 2105) in the AlphaScreen standard mode. A standard curve was plotted from the AlphaLISA signal values of the IRAK4 standard solutions with different concentrations, and the IRAK4 concentration of each cell lysate supernatant was determined according to the corresponding concentrations on the standard curve for the AlphaLISA signal values of the test samples and by performing corresponding correction on the total protein concentration of each sample obtained by BCA quantification. The degradation rates for the compounds at each concentration were calculated by comparing the IRAK4 concentration with that of the control group. Then non-linear curve fittings for logarithmic concentration-inhibition rate were performed using GraphPad Prism 8, and the DC50 and Dmax values of the compound were obtained.
SMILES,IC50 (IRAK4 kinase),DC50 [1],Dmax [1]
COc1cc2nn([C@H]3CC[C@](O)(COCCC4CCN(C(=O)c5ccc(Cl)c(N6CCC(=O)NC6=O)c5)CC4)CC3)cc2cc1NC(=O)c1cccc(C(F)(F)F)n1 [Example 34],12.9 nM,1.32 nM,99.1%
"COc1ccc(C(=O)N2CCC(CCN(C)C[C@H]3CC[C@H](n4cc(NC(=O)c5cnn6ccc(N7CC8(COC8)C7)nc56)c(C(F)F)n4)CC3)CC2)cc1N1CCC(=O)NC1=O [Example 32, N-(3-(difluoromethyl)-1-((1R,4R)-4-(((2-(1-(3-(2,4-dioxotetrahydropyrimidin-1(2H)-yl)-4-methoxybenzoyl)piperidin-4-yl)ethyl)(methyl)amino)methyl)cyclohexyl)-1H-pyrazol-4-yl)-5-(2-oxa-6-azaspiro[3.3]heptan-6-yl)pyrazolo[1,5-a]pyrimidine-3-carboxamide]",17 nM,1.11 nM,98.1%
"CN(CCC1CCN(C(=O)c2ccc(Cl)c(N3CCC(=O)NC3=O)c2)CC1)C[C@H]1CC[C@H](n2cc(NC(=O)c3cnn4ccc(N5CC6CCC(C5)O6)nc34)c(C(F)F)n2)CC1 [Example 10, 5-(8-oxa-3-azabicyclo[3.2.1]octan-3-yl)-N-(1-((1R,4R)-4-(((2-(1-(4-chloro-3-(2,4-dioxotetrahydropyrimidin-1(2H)-yl)benzoyl)piperidin-4-yl)ethyl)(methyl)amino)methyl)cyclohexyl)-3-(difluoromethyl)-1H-pyrazol-4-yl)pyrazolo[1,5-a]pyrimidine-3-carboxamide]",8.05 nM,0.67 nM,97.6%
"O=C1CCN(c2cc(C(=O)N3CCC4(CCN(C[C@H]5CC[C@H](n6cc(NC(=O)c7cnn8ccc(N9CC%10CCC(C9)O%10)nc78)c(C(F)F)n6)CC5)CC4)CC3)ccc2Cl)C(=O)N1 [Example 11, 5-(8-oxa-3-azabicyclo[3.2.1]octan-3-yl)-N-(1-((1R,4R)-4-((9-(4-chloro-3-(2,4-dioxotetrahydropyrimidin-1(2H)-yl)benzoyl)-3,9-diazaspiro[5.5]undecan-3-yl)methyl)cyclohexyl)-3-(difluoromethyl)-1H-pyrazol-4-yl)pyrazolo[1,5-a]pyrimidine-3-carboxamide]",7.74 nM,0.88 nM,97.4%
COc1cc2nn([C@H]3CC[C@@](COCCC4CCN(C(=O)c5ccc(Cl)c(N6CCC(=O)NC6=O)c5)CC4)(OC)CC3)cc2cc1NC(=O)c1cccc(C(F)(F)F)n1 [Example 36],9.29 nM,2.03 nM,98.6%
CN(CCC1CCN(C(=O)c2ccc(F)c(C3CCC(=O)NC3=O)c2)CC1)C(=O)[C@H]1CC[C@H](n2cc(NC(=O)c3cnn4ccc(N5CCOCC5)nc34)c(C(F)F)n2)CC1 (stereo partly shown) [Example 17],9.82 nM,0.92 nM,98.9%
"CN(CCC1CCN(C(=O)c2ccc(Cl)c(N3CCC(=O)NC3=O)c2)CC1)C[C@H]1CC[C@H](n2cc(NC(=O)c3cnn4ccc(N5CCC[C@H](N)C5)nc34)c(C(F)F)n2)CC1 [Example 18, 5-((S)-3-aminopiperidin-1-yl)-N-(1-((1R,4S)-4-(((2-(1-(4-chloro-3-(2,4-dioxotetrahydropyrimidin-1(2H)-yl)benzoyl)piperidin-4-yl)ethyl)(methyl)amino)methyl)cyclohexyl)-3-(difluoromethyl)-1H-pyrazol-4-yl)pyrazolo[1,5-a]pyrimidine-3-carboxamide]",7.86 nM,0.77 nM,99.5%
"COc1cc2nn([C@H]3CC[C@](O)(COCC4CCN(C(=O)c5ccc(Cl)c(N6CCC(=O)NC6=O)c5)CC4)CC3)cc2cc1NC(=O)c1cccc(C(F)(F)F)n1 [Example 33, N-(2-((1S,4S)-4-(((1-(4-chloro-3-(2,4-dioxotetrahydropyrimidin-1(2H)-yl)benzoyl)piperidin-4-yl)methoxy)methyl)-4-hydroxycyclohexyl)-6-methoxy-2H-indol-5-yl)-6-(trifluoromethyl)pyridinecarboxamide]",10.6 nM,1.58 nM,98.6%
"Cc1ccc(C(=O)N2CCC3(CCC(CN4CCC(n5cc(NC(=O)c6cnn7ccc(N8CCC[C@H](N)C8)nc67)c(C(F)F)n5)CC4)CC3)CC2)cc1N1CCC(=O)NC1=O [Example 23, (S)-5-(3-aminopiperidin-1-yl)-N-(3-(difluoromethyl)-1-(1-((3-(3-(2,4-dioxotetrahydropyrimidin-1(2H)-yl)-4-methylbenzoyl)-3-azaspiro[5.5]undecan-9-yl)methyl)piperidin-4-yl)-1H-pyrazol-4-yl)pyrazolo[1,5-a]pyrimidine-3-carboxamide]",,2.17 nM,99%

# Now those with a lower DC50 [1], led by results:
IC50 (IRAK4 kinase),DC50 [1],Dmax [1],SMILES
15.1 nM,0.65 nM,99.7%,COc1cc2nn([C@H]3CC[C@](O)(CN(C)CC4CCC5(CC4)CCN(C(=O)c4ccc(Cl)c(N6CCC(=O)NC6=O)c4)CC5)CC3)cc2cc1NC(=O)c1cccc(C(F)(F)F)n1 [Example 35]
36.1 nM,0.47 nM,98%,"O=C1CCN(c2cc(C(=O)N3CCC4(CCN(C[C@H]5CC[C@H](n6cc(NC(=O)c7cnn8ccc(N9CC%10(COC%10)C9)nc78)c(C(F)F)n6)CC5)CC4)CC3)ccc2Cl)C(=O)N1 [Example 19, N-(1-((1R,4R)-4-((9-(4-chloro-3-(2,4-dioxotetrahydropyrimidin-1(2H)-yl)benzoyl)-3,9-diazaspiro[5.5]undecan-3-yl)methyl)cyclohexyl)-3-(difluoromethyl)-1H-pyrazol-4-yl)-5-(2-oxa-6-azaspiro[3.3]heptan-6-yl)pyrazolo[1,5-a]pyrimidine-3-carboxamide]"
,0.56 nM,97.9%,"COc1ccc(C(=O)N2CCC3(CCC(CN4CCC(n5cc(NC(=O)c6cnn7ccc(N8CC9CCC(C8)O9)nc67)c(C(F)F)n5)CC4)CC3)CC2)cc1N1CCC(=O)NC1=O [Example 6, 5-(8-oxa-3-azabicyclo[3.2.1]octan-3-yl)-N-(3-(difluoromethyl)-1-(1-((3-(3-(2,4-dioxotetrahydropyrimidin-1(2H)-yl)-4-methoxybenzoyl)-3-azaspiro[5.5]undecan-9-yl)methyl)piperidin-4-yl)-1H-pyrazol-4-yl)pyrazolo[1,5-a]pyrimidine-3-carboxamide]"
2.98 nM,0.28 nM,97.8%,"Cc1ccc(C(=O)N2CCC3(CCN(C[C@H]4CC[C@H](n5cc(NC(=O)c6cnn7ccc(N8CCC[C@H](O)C8)nc67)c(C(F)F)n5)CC4)CC3)CC2)cc1N1CCC(=O)NC1=O [Example 27, N-(3-(difluoromethyl)-1-((1R,4S)-4-((9-(3-(2,4-dioxotetrahydropyrimidin-1(2H)-yl)-4-methylbenzoyl)-3,9-diazaspiro[5.5]undecan-3-yl)methyl)cyclohexyl)-1H-pyrazol-4-yl)-5-((S)-3-hydroxypiperidin-1-yl)pyrazolo[1,5-a]pyrimidine-3-carboxamide]"
